The values below come from article PMC10967822, “Antimicrobial Indole-3-Carboxamido-Polyamine Conjugates Target Bacterial Membranes and Are Antibiotic Potentiators” (Biomolecules, 2024).

≈ marks a conversion by molar mass, not a printed value. Bounds are passed on as bounds.

One series has as its system MRSA ATCC 43300. Kind of series: MIC, broth microdilution (CO-ADD), MRSA. The class given is cell-based, methicillin-resistant S. aureus. Conditions: Staphylococcus aureus; MRSA ATCC 43300; top dose 32 µg/mL; read-out: MIC MRSA. In general terms: Dilution methods test growth across graded concentrations, often in twofold steps.
By MIC is commonly meant the smallest concentration in the dilution series that meets the test's criterion for growth inhibition. As to `O=C(NCCCNCCCCCCCCCCNCCCNC(=O)c1c[nH]c2c(F)cccc12)c1c[nH]c2c(F)cccc12` [Compound 16e], the MIC was not above 0.3 µM.

Consider `O=C(NCCCNCCCCCCCCCCCCNCCCNC(=O)c1c[nH]c2c(F)cccc12)c1c[nH]c2c(F)cccc12.O=C(O)C(F)(F)F.O=C(O)C(F)(F)F` [Compound 16f], for which the MIC was not above 0.29 µM.

The next series has as its system C. neoformans ATCC 208821. Kind of series: Antifungal MIC (CO-ADD), C. neoformans. The settings on record: Cryptococcus neoformans, ATCC208821, top dose 32 µg/mL. The series is classed as cell-based. The procedure: For the antifungal assay, fungi strains were cultured for 3 days on YPD agar at 30 °C. A yeast suspension of 1 × 10^6 to 5 × 10^6 CFU/mL was prepared from five colonies. These stock suspensions were diluted with a yeast nitrogen base (YNB) (Becton Dickinson, 233520, New South Wales, Australia) broth to a final concentration of 2.5 × 10^3 CFU/mL. […] The plates were covered and incubated at 35 °C for 36 h without shaking. C. albicans MICs were determined by measuring the absorbance at OD530. For C. neoformans, resazurin was added at a 0.006% final concentration to each well and incubated for a further 3 h before the MICs were determined by measuring the absorbance at OD570–600. […] Fluconazole was used as a positive fungal inhibitor standard for C. albicans and C. neoformans. […] The quality control (QC) of the assays was determined by the antimicrobial controls and the Z′-factor (using positive and negative controls).
Molecule `O=C(NCCCNCCCCCCCCCCNCCCNC(=O)c1c[nH]c2c(F)cccc12)c1c[nH]c2c(F)cccc12` [Compound 16e] showed an MIC not above 0.3 µM.

Molecule `O=C(NCCCNCCCCCCCCCCCCNCCCNC(=O)c1c[nH]c2c(F)cccc12)c1c[nH]c2c(F)cccc12.O=C(O)C(F)(F)F.O=C(O)C(F)(F)F` [Compound 16f] returned an MIC not above 0.29 µM.

The test system of another series is C. albicans ATCC 90028. Kind of series: Antifungal MIC (CO-ADD), C. albicans. Conditions: Candida albicans, ATCC90028, top dose 32 µg/mL. The class given is cell-based. The procedure, abridged:
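MIC for C. neoformans determined by OD570–600 following a further 3 h with resazurin (0.006% final), whereas C. albicans was read directly at OD530. Both grown static in YNB broth at 2.5 × 10^3 CFU/mL final inoculum, 35 °C for 36 h, from colonies cultured on YPD agar 3 days at 30 °C.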
`O=C(NCCCNCCCCCCCCCCNCCCNC(=O)c1c[nH]c2c(F)cccc12)c1c[nH]c2c(F)cccc12` [Compound 16e] gave a minimum inhibitory concentration (MIC) not above 0.3 µM.

Consider `O=C(NCCCNCCCCCCCCCCCCNCCCNC(=O)c1c[nH]c2c(F)cccc12)c1c[nH]c2c(F)cccc12.O=C(O)C(F)(F)F.O=C(O)C(F)(F)F` [Compound 16f], for which the MIC is more than 37 µM.

In another series the test system is E. coli ATCC 25922. Kind of series: MIC, broth dilution, E. coli. The class given is cell-based, Escherichia coli. Conditions: Escherichia coli, ATCC25922; E. coli ATCC 25922, 18 h.
Molecule `O=C(NCCCNCCCCCCCCCCNCCCNC(=O)c1c[nH]c2c(F)cccc12)c1c[nH]c2c(F)cccc12` [Compound 16e] showed an MIC of 239 µM (≈ 145 µg/mL).

`O=C(NCCCNCCCCCCCCCCCCNCCCNC(=O)c1c[nH]c2c(F)cccc12)c1c[nH]c2c(F)cccc12.O=C(O)C(F)(F)F.O=C(O)C(F)(F)F` [Compound 16f] showed an MIC of 231 µM.

For another series, the system named is P. aeruginosa ATCC 27853. Kind of series: Doxycycline potentiation against P. aeruginosa. The series is classed as cell-based, Pseudomonas aeruginosa. Conditions: doxycycline at 2 µg/mL (4.5 µM), P. aeruginosa ATCC 27853. The text has this:
(§1) These measurements were independently repeated in triplicate.
As for `O=C(NCCCNCCCCCCCCCCNCCCNC(=O)c1c[nH]c2c(F)cccc12)c1c[nH]c2c(F)cccc12` [Compound 16e], the “Dox/Pa fold-change (intrinsic MIC / combination MIC)” value is recorded as 8 fold.

As to `O=C(NCCCNCCCCCCCCCCCCNCCCNC(=O)c1c[nH]c2c(F)cccc12)c1c[nH]c2c(F)cccc12.O=C(O)C(F)(F)F.O=C(O)C(F)(F)F` [Compound 16f], the “Dox/Pa fold-change (intrinsic MIC / combination MIC)” value is 1 fold.

Staying with this series, now noted: doxycycline at 2 µg/mL (4.5 µM), P. aeruginosa ATCC 27853, mean n = 3.
For `O=C(NCCCNCCCCCCCCCCNCCCNC(=O)c1c[nH]c2c(F)cccc12)c1c[nH]c2c(F)cccc12` [Compound 16e], the “Dox/Pa: concentration required to restore doxycycline activity (combination MIC)” value came to 29.9 µM.

Turning to `O=C(NCCCNCCCCCCCCCCCCNCCCNC(=O)c1c[nH]c2c(F)cccc12)c1c[nH]c2c(F)cccc12.O=C(O)C(F)(F)F.O=C(O)C(F)(F)F` [Compound 16f], the “Dox/Pa: concentration required to restore doxycycline activity (combination MIC)” value amounted to 116 µM.

In another series the test system is human red blood cells. Kind of series: Hemolytic assay. The series is classed as cell-based. The settings on record: 10% hemolytic activity, mean n = 2. The method, boiled down: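 Compounds were applied to saline-washed human red blood cells at 0.5 × 10^8 cells/mL, 37 °C, 1 h. Lysis was measured by supernatant absorbance at 405 nm, and concentrations giving 10% and 50% haemolysis were obtained by variable-slope curve fitting.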
Consider `O=C(NCCCNCCCCCCCCCCNCCCNC(=O)c1c[nH]c2c(F)cccc12)c1c[nH]c2c(F)cccc12` [Compound 16e], for which the “Hemolysis HC10” value was more than 38 µM.

In the case of `O=C(NCCCNCCCCCCCCCCCCNCCCNC(=O)c1c[nH]c2c(F)cccc12)c1c[nH]c2c(F)cccc12.O=C(O)C(F)(F)F.O=C(O)C(F)(F)F` [Compound 16f], the “Hemolysis HC10” value is more than 37 µM.

System in a further series: not listed separately
Kind of series: Cytotoxicity assay (resazurin). The class given is cell-based. Conditions: human, HEK293 cells, mean n = 2.
By IC50 is commonly meant the concentration at which inhibition is half-maximal. A higher IC50 goes with weaker potency in that assay. `O=C(NCCCNCCCCCCCCCCNCCCNC(=O)c1c[nH]c2c(F)cccc12)c1c[nH]c2c(F)cccc12` [Compound 16e] registered a half-inhibitory concentration (IC50) at 20 h of more than 38 µM.

In turn, `O=C(NCCCNCCCCCCCCCCCCNCCCNC(=O)c1c[nH]c2c(F)cccc12)c1c[nH]c2c(F)cccc12.O=C(O)C(F)(F)F.O=C(O)C(F)(F)F` [Compound 16f] came in with an IC50 at 20 h of more than 37 µM.

Another series concerns A. baumannii ATCC 19606. Kind of series: MIC, broth microdilution (CO-ADD), A. baumannii. The class given is cell-based, Acinetobacter baumannii. The settings on record: Acinetobacter baumannii, ATCC19606, top dose 32 µg/mL.
The molecule `O=C(NCCCNCCCCCCCCCCNCCCNC(=O)c1c[nH]c2c(F)cccc12)c1c[nH]c2c(F)cccc12` [Compound 16e] returned an MIC of more than 38 µM.

The molecule `O=C(NCCCNCCCCCCCCCCCCNCCCNC(=O)c1c[nH]c2c(F)cccc12)c1c[nH]c2c(F)cccc12.O=C(O)C(F)(F)F.O=C(O)C(F)(F)F` [Compound 16f] registered an MIC of more than 37 µM.

For a further series, the system named is S. aureus ATCC 25923. Kind of series: MIC, broth dilution, S. aureus. The series is classed as cell-based, Staphylococcus aureus. Conditions: Staphylococcus aureus, ATCC25923; S. aureus ATCC 25923, 18 h; read-out: MIC Sa.
For `O=C(NCCCNCCCCCCCCCCNCCCNC(=O)c1c[nH]c2c(F)cccc12)c1c[nH]c2c(F)cccc12` [Compound 16e], the MIC was 239 µM (≈ 145 µg/mL).

In the case of `O=C(NCCCNCCCCCCCCCCCCNCCCNC(=O)c1c[nH]c2c(F)cccc12)c1c[nH]c2c(F)cccc12.O=C(O)C(F)(F)F.O=C(O)C(F)(F)F` [Compound 16f], the MIC was 231 µM.

The next series deals with E. coli ATCC 25922. Kind of series: Erythromycin potentiation against E. coli. The series is classed as cell-based, Escherichia coli. The settings on record: erythromycin at 2 µg/mL (2.7 µM), E. coli.
Description: as §1
Consider `O=C(NCCCNCCCCCCCCCCNCCCNC(=O)c1c[nH]c2c(F)cccc12)c1c[nH]c2c(F)cccc12` [Compound 16e], for which the “Erythro/Ec fold-change (intrinsic MIC / combination MIC)” value was found to be 1 fold.

On to `O=C(NCCCNCCCCCCCCCCCCNCCCNC(=O)c1c[nH]c2c(F)cccc12)c1c[nH]c2c(F)cccc12.O=C(O)C(F)(F)F.O=C(O)C(F)(F)F` [Compound 16f], for which the “Erythro/Ec fold-change (intrinsic MIC / combination MIC)” value was 1 fold.

The series is the same for the next values; noted with them: erythromycin at 2 µg/mL (2.7 µM), mean n = 3.
Consider `O=C(NCCCNCCCCCCCCCCNCCCNC(=O)c1c[nH]c2c(F)cccc12)c1c[nH]c2c(F)cccc12` [Compound 16e], for which the “Erythro/Ec: concentration required to restore erythromycin activity (combination MIC)” value worked out at 239 µM.

Regarding `O=C(NCCCNCCCCCCCCCCCCNCCCNC(=O)c1c[nH]c2c(F)cccc12)c1c[nH]c2c(F)cccc12.O=C(O)C(F)(F)F.O=C(O)C(F)(F)F` [Compound 16f], the “Erythro/Ec: concentration required to restore erythromycin activity (combination MIC)” value was 231 µM.

A further series has as its system K. pneumoniae ATCC 700603. In words: MIC, broth microdilution (CO-ADD), K. pneumoniae. Conditions: top dose 32 µg/mL.
In the case of `O=C(NCCCNCCCCCCCCCCNCCCNC(=O)c1c[nH]c2c(F)cccc12)c1c[nH]c2c(F)cccc12` [Compound 16e], the “MIC Kp” value was more than 38 µM.

With `O=C(NCCCNCCCCCCCCCCCCNCCCNC(=O)c1c[nH]c2c(F)cccc12)c1c[nH]c2c(F)cccc12.O=C(O)C(F)(F)F.O=C(O)C(F)(F)F` [Compound 16f], the “MIC Kp” value was more than 37 µM.

The next series has as its system P. aeruginosa ATCC 27853. Kind of series: MIC, broth dilution, P. aeruginosa. The class given is cell-based, Pseudomonas aeruginosa. The settings on record: Pseudomonas aeruginosa, ATCC27853; P. aeruginosa ATCC 27853, 18 h; read-out: MIC Pa.
Turning to `O=C(NCCCNCCCCCCCCCCNCCCNC(=O)c1c[nH]c2c(F)cccc12)c1c[nH]c2c(F)cccc12` [Compound 16e], the MIC was 239 µM (≈ 145 µg/mL).

For the molecule `O=C(NCCCNCCCCCCCCCCCCNCCCNC(=O)c1c[nH]c2c(F)cccc12)c1c[nH]c2c(F)cccc12.O=C(O)C(F)(F)F.O=C(O)C(F)(F)F` [Compound 16f], the MIC was found to be 116 µM.
